In paper PMC4841536, “Characterization of the Anti-HCV Activities of the New Cyclophilin Inhibitor STG-175” (PLoS ONE, 2016) one finds EC50 data, which are given here for one molecule.

In this experiment the test system is NS3i-resistant R155Q/A156T NS3 Con1 GT1b replicon. In words: Electroporated Con1 RNA replication in Huh7.5.1 cells (RT-qPCR), R155Q/A156T NS3. The settings on record: Hepatitis C virus, Huh-7.5.1, 192 h, read-out: EC50 R155Q/A156T NS3. The experiment is classed as cell-based. The source says:
The GT1b subgenomic firefly luciferase reporter replicon pFK-I389/NS3–3 was provided by R. Bartenschlager. The GT1B subgenomic NS3, NS5A and NS5B mutants were created via homologous recombination using the In-Fusion HD Cloning kit (Clontech) as we described previously. […] The in vitro transcription of wild-type and mutant Con1 RNA was accomplished using the T7 MEGAscript kit (Ambion) by following the manufacturer’s instructions. In vitro-transcribed RNAs were introduced into Huh7.5.1 cells by electroporation. Trypsinized cells were washed twice and resuspended in phosphate-buffered saline (PBS) (calcium-free and magnesium-free) at 1x 10^7 cells per ml. Ten micrograms of RNA for each mutant was mixed with 0.4 mL of cells in a 4-mm cuvette, and a Bio-Rad Gene Pulser system was used to deliver a single pulse at 0.27 kV, 100 ohms, and 960 μF. […] RNA transfection efficiency and HCV subgenomic replication were assessed by reverse transcription-quantitative PCR (RT-qPCR) and presented as genome equivalents (GE) per microgram of total RNA as described previously. We measured by RT-qPCR the replication of wild-type, STG-175-, NS5Ai-, NS3i- and NS5Bi-resistant mutants in the presence of increasing concentrations of SGT-175, daclatasvir, telaprevir, boceprevir and sofosbuvir over a period of 8 days.
Fig 5 Cross-resistance analyses. […] Data are expressed as log of GE/μg of total RNA. […]
(In general: In qPCR the cycle at which signal appears reflects the starting amount.)

On to `CC=CCC(C)C(O)C1C(=O)NC(CC)C(=O)N(C)C(CSCCCCO)C(=O)N(C)C(CC(C)(C)O)C(=O)NC(C(C)C)C(=O)N(C)C(CC(C)C)C(=O)NC(C)C(=O)NC(C)C(=O)N(C)C(CC(C)C)C(=O)N(C)C(CC(C)C)C(=O)N(C)C(C(C)C)C(=O)N1C` (stereo not shown) [STG-175], for which the EC50 is 13.6 nM.
